# Data published in PubChem BioAssay AID212 (DTP/NCI, 2004).
# Values joined by “and” are separate entries in the source; they are usually repeats but may differ in a detail not shown here. Equal values may be shown once. Results filed as inconclusive are left out.
# Tested on: BDF1 mice, colon carcinoma 38 sc, T/C %
# Assay: NCI In Vivo Anticancer Drug Screen. Data for tumor model Colon Carcinoma 38 (subcutaneous) in B6D2F1 (BDF1) mice
# In short: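 Transplantable tumor in mice; compound-treated vs vehicle-dosed controls. Measured survival or tumor size; value = T ÷ C.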
# [1] = endpoint: median tumor weight (est.), dose: 25.0 mg/kg/injection, schedule: Q07DX002 (ip), vehicle: water, higher = larger tumour
# [2] = endpoint: median tumor weight (est.), dose: 50.0 mg/kg/injection, schedule: Q07DX002 (ip), vehicle: water, higher = larger tumour
# [3] = endpoint: median tumor weight (est.), dose: 100.0 mg/kg/injection, schedule: Q07DX002 (ip), vehicle: saline, higher = larger tumour
# [4] = endpoint: median tumor weight (est.), dose: 6.25 mg/kg/injection, schedule: Q07DX002 (ip), vehicle: dextrose, higher = larger tumour
# [5] = endpoint: median tumor weight (est.), dose: 25.0 mg/kg/injection, schedule: Q07DX003 (ip), vehicle: dextrose, higher = larger tumour
# [6] = endpoint: median tumor weight (est.), dose: 100.0 mg/kg/injection, schedule: Q07DX002 (ip), vehicle: saline with Tween-80, higher = larger tumour
# [7] = endpoint: median tumor weight (est.), dose: 2.5 mg/kg/injection, schedule: Q07DX002 (ip), vehicle: saline, higher = larger tumour
# [8] = endpoint: median tumor weight (est.), dose: 200.0 mg/kg/injection, schedule: Q07DX002 (ip), vehicle: saline with Tween-80, higher = larger tumour
# [9] = endpoint: median tumor weight (est.), dose: 400.0 mg/kg/injection, schedule: Q07DX002 (ip), vehicle: saline with Tween-80, higher = larger tumour
structure (smiles),measurement,setting,value
COc1cccc2c1C(=O)c1c(O)c3c(c(O)c1C2=O)C[C@@](O)(C(O)CO)C[C@@H]3OC1CC(N(Cc2ccccc2)Cc2ccccc2)C(O)C(C)O1 (stereo not given in full),T/C,"endpoint: median tumor weight (est.), dose: 12.5 mg/kg/injection, schedule: Q07DX002 (ip), vehicle: water, higher = larger tumour",75 % of control
same,T/C,[1],72 % of control
same,T/C,[2],36 % of control
NC1CCCCC1N.O=C1C=CC(=C(c2ccc(O)cc2)c2ccccc2S(=O)(=O)[O-])C=C1.O=[N+]([O-])[O-].[Pt+4],T/C,"endpoint: median tumor weight (est.), dose: 1.56 mg/kg/injection, schedule: Q07DX002 (ip), vehicle: saline, higher = larger tumour",14 % of control
OCC1(CO)COC2(CCCCC2)N1,T/C,[3],118 % of control and 102 % of control
same,T/C,"endpoint: median tumor weight (est.), dose: 400.0 mg/kg/injection, schedule: Q07DX002 (ip), vehicle: saline, higher = larger tumour",112 % of control and 122 % of control
CC(C)[NH-].CC(C)[NH-].O.O.[Cl][Pt+2][Cl],T/C,"endpoint: median tumor weight (est.), dose: 3.12 mg/kg/injection, schedule: Q07DX003 (ip), vehicle: dextrose, higher = larger tumour",90 % of control
same,T/C,[4],41 % of control
same,T/C,"endpoint: median tumor weight (est.), dose: 12.5 mg/kg/injection, schedule: Q07DX002 (ip), vehicle: dextrose, higher = larger tumour",81 % of control
same,T/C,"endpoint: median tumor weight (est.), dose: 25.0 mg/kg/injection, schedule: Q07DX002 (ip), vehicle: dextrose, higher = larger tumour",39 % of control
same,T/C,[5],52 % of control
COc1cccc2c1C(=O)c1c(O)c3c(c(O)c1C2=O)CC(O)(/C(C)=N/NC(=O)CCC(=O)N/N=C(\C)C1(O)Cc2c(O)c4c(c(O)c2C(OC2CC(N)C(O)C(C)O2)C1)C(=O)c1c(OC)cccc1C4=O)CC3OC1CC(N)C(O)C(C)O1 (stereo not given),T/C,"endpoint: median survival time, dose: 28.0 mg/kg/injection, schedule: Q07DX003 (sc), vehicle: water, higher = longer survival",107 % of control
same,T/C,"endpoint: median survival time, dose: 73.0 mg/kg/injection, schedule: Q07DX003 (sc), vehicle: water, higher = longer survival",100 % of control
same,T/C,"endpoint: median survival time, dose: 118.0 mg/kg/injection, schedule: Q07DX003 (sc), vehicle: water, higher = longer survival",175 % of control
same,T/C,"endpoint: median tumor weight (est.), dose: 4.0 mg/kg/injection, schedule: Q07DX002 (ip), vehicle: distilled water + Tween-80, higher = larger tumour",97 % of control
same,T/C,"endpoint: median tumor weight (est.), dose: 8.0 mg/kg/injection, schedule: Q07DX002 (ip), vehicle: distilled water + Tween-80, higher = larger tumour",90 % of control
same,T/C,"endpoint: median tumor weight (est.), dose: 8.0 mg/kg/injection, schedule: Q07DX002 (ip), vehicle: water, higher = larger tumour",104 % of control
same,T/C,"endpoint: median tumor weight (est.), dose: 9.48 mg/kg/injection, schedule: Q07DX002 (ip), vehicle: water, higher = larger tumour",9 % of control
same,T/C,"endpoint: median tumor weight (est.), dose: 14.2 mg/kg/injection, schedule: Q07DX002 (ip), vehicle: water, higher = larger tumour",2 % of control
same,T/C,"endpoint: median tumor weight (est.), dose: 16.0 mg/kg/injection, schedule: Q07DX002 (ip), vehicle: distilled water + Tween-80, higher = larger tumour",69 % of control
same,T/C,"endpoint: median tumor weight (est.), dose: 16.0 mg/kg/injection, schedule: Q07DX002 (ip), vehicle: water, higher = larger tumour",90 % of control
same,T/C,"endpoint: median tumor weight (est.), dose: 32.0 mg/kg/injection, schedule: Q07DX002 (ip), vehicle: distilled water + Tween-80, higher = larger tumour",59 % of control
same,T/C,"endpoint: median tumor weight (est.), dose: 32.0 mg/kg/injection, schedule: Q07DX002 (ip), vehicle: water, higher = larger tumour",54 % of control
same,T/C,"endpoint: median tumor weight (est.), dose: 64.0 mg/kg/injection, schedule: Q07DX002 (ip), vehicle: distilled water + Tween-80, higher = larger tumour",4 % of control
O=C(O)C1(C(=O)O)CCC1.[NH2-].[NH2-].[Pt+2],T/C,[4],81 % of control
same,T/C,"endpoint: median tumor weight (est.), dose: 6.25 mg/kg/injection, schedule: Q07DX003 (ip), vehicle: other, higher = larger tumour",53 % of control
same,T/C,"endpoint: median tumor weight (est.), dose: 12.5 mg/kg/injection, schedule: Q07DX003 (ip), vehicle: other, higher = larger tumour",81 % of control
same,T/C,[5],64 % of control
same,T/C,"endpoint: median tumor weight (est.), dose: 25.0 mg/kg/injection, schedule: Q07DX003 (ip), vehicle: other, higher = larger tumour",74 % of control
same,T/C,"endpoint: median tumor weight (est.), dose: 50.0 mg/kg/injection, schedule: Q07DX003 (ip), vehicle: dextrose, higher = larger tumour",34 % of control
same,T/C,"endpoint: median tumor weight (est.), dose: 50.0 mg/kg/injection, schedule: Q07DX003 (ip), vehicle: other, higher = larger tumour",42 % of control
same,T/C,"endpoint: median tumor weight (est.), dose: 100.0 mg/kg/injection, schedule: Q07DX003 (ip), vehicle: dextrose, higher = larger tumour",25 % of control
same,T/C,"endpoint: median tumor weight (est.), dose: 100.0 mg/kg/injection, schedule: Q07DX003 (ip), vehicle: other, higher = larger tumour",21 % of control
S=C=NCCc1ccccc1,T/C,[6],82 % of control and 105 % of control
C[PH+](C)C.C[PH+](C)C.[Au],T/C,"endpoint: median tumor weight (est.), dose: 1.25 mg/kg/injection, schedule: Q07DX002 (ip), vehicle: saline, higher = larger tumour",99 % of control
same,T/C,[7],84 % of control
same,T/C,"endpoint: median tumor weight (est.), dose: 5.0 mg/kg/injection, schedule: Q07DX002 (ip), vehicle: saline, higher = larger tumour",87 % of control
same,T/C,"endpoint: median tumor weight (est.), dose: 10.0 mg/kg/injection, schedule: Q07DX002 (ip), vehicle: saline, higher = larger tumour",65 % of control
O=NN(CCCl)C(=O)NC1OC(CO)C(O)C(O)C1O (stereo not given),T/C,[7],114 % of control and 96 % of control
same,T/C,"endpoint: median tumor weight (est.), dose: 8.0 mg/kg/injection, schedule: Q07DX002 (ip), vehicle: saline, higher = larger tumour",88 % of control and 92 % of control
same,T/C,"endpoint: median tumor weight (est.), dose: 16.0 mg/kg/injection, schedule: Q07DX002 (ip), vehicle: saline, higher = larger tumour",34 % of control and 58 % of control
C1OCN2CSCC12 (stereo not given),T/C,"endpoint: median tumor weight (est.), dose: 25.0 mg/kg/injection, schedule: Q07DX002 (ip), vehicle: saline with Tween-80, higher = larger tumour",97 % of control
same,T/C,"endpoint: median tumor weight (est.), dose: 50.0 mg/kg/injection, schedule: Q07DX002 (ip), vehicle: saline with Tween-80, higher = larger tumour",67 % of control
same,T/C,[6],85 % of control
same,T/C,[8],79 % of control
same,T/C,[9],80 % of control
O=C(Nc1cccc(Cl)c1)ON1C(=O)C2C(C1=O)C1(Cl)C(Cl)C(Cl)C2(Cl)C1(Cl)Cl (stereo not given),T/C,[6],95 % of control
same,T/C,[8],89 % of control
same,T/C,[9],58 % of control
Cc1cc(NCCCCCCNc2cc(C)nc3cc(N(C)C)ccc23)c2ccc(N(C)C)cc2n1,T/C,"endpoint: median tumor weight (est.), dose: 6.0 mg/kg/injection, schedule: Q07DX002 (ip), vehicle: distilled water + Tween-80 + alcohol, higher = larger tumour",107 % of control
same,T/C,"endpoint: median tumor weight (est.), dose: 12.5 mg/kg/injection, schedule: Q07DX002 (ip), vehicle: distilled water + Tween-80 + alcohol, higher = larger tumour",99 % of control
same,T/C,"endpoint: median tumor weight (est.), dose: 25.0 mg/kg/injection, schedule: Q07DX002 (ip), vehicle: distilled water + Tween-80 + alcohol, higher = larger tumour",95 % of control
same,T/C,"endpoint: median tumor weight (est.), dose: 50.0 mg/kg/injection, schedule: Q07DX002 (ip), vehicle: distilled water + Tween-80 + alcohol, higher = larger tumour",105 % of control
same,T/C,"endpoint: median tumor weight (est.), dose: 100.0 mg/kg/injection, schedule: Q07DX002 (ip), vehicle: distilled water + Tween-80 + alcohol, higher = larger tumour",90 % of control
CC[C@]1(O)C[C@H]2CN(CCc3c([nH]c4ccccc34)[C@@](C(=O)OC)(c3cc4c(cc3OC)N(C)[C@H]3[C@@](O)(C(=O)OC)[C@H](OC(C)=O)[C@]5(CC)C=CCN6CC[C@]43[C@@H]65)C2)C1,T/C,"endpoint: median tumor weight (est.), dose: 4.0 mg/kg/injection, schedule: Q07DX002 (ip), vehicle: saline, higher = larger tumour",20 % of control and 22 % of control
CCN(CC)CCOC(=O)Cc1cccc2c(=O)cc(-c3ccc(Cl)cc3)oc12,T/C,[6],48 % of control
same,T/C,[8],4 % of control
O=C(O)C1CSCN1 (stereo not given),T/C,"endpoint: median tumor weight (est.), dose: 6.25 mg/kg/injection, schedule: Q07DX002 (ip), vehicle: saline, higher = larger tumour",110 % of control
same,T/C,"endpoint: median tumor weight (est.), dose: 6.25 mg/kg/injection, schedule: Q07DX002 (ip), vehicle: water, higher = larger tumour",106 % of control
same,T/C,"endpoint: median tumor weight (est.), dose: 12.5 mg/kg/injection, schedule: Q07DX002 (ip), vehicle: saline, higher = larger tumour",98 % of control
same,T/C,"endpoint: median tumor weight (est.), dose: 25.0 mg/kg/injection, schedule: Q07DX002 (ip), vehicle: saline, higher = larger tumour",110 % of control
same,T/C,[1],114 % of control
same,T/C,"endpoint: median tumor weight (est.), dose: 50.0 mg/kg/injection, schedule: Q07DX002 (ip), vehicle: saline, higher = larger tumour",105 % of control
same,T/C,[2],87 % of control
same,T/C,[3],80 % of control
